The source of these data is publication PMC6278960 (Haematologica, 2018).

As a reminder, the IC50 is the concentration needed to halve the response being measured.

This test addresses protein disulfide isomerase (PDI) (Homo sapiens, UniProt P07237). The test can be described thus: turbidimetric insulin disulfide reduction assay with recombinant human PDI. In kind it is biochemical.

protein disulfide isomerase (PDI), sequence (P07237 18-508): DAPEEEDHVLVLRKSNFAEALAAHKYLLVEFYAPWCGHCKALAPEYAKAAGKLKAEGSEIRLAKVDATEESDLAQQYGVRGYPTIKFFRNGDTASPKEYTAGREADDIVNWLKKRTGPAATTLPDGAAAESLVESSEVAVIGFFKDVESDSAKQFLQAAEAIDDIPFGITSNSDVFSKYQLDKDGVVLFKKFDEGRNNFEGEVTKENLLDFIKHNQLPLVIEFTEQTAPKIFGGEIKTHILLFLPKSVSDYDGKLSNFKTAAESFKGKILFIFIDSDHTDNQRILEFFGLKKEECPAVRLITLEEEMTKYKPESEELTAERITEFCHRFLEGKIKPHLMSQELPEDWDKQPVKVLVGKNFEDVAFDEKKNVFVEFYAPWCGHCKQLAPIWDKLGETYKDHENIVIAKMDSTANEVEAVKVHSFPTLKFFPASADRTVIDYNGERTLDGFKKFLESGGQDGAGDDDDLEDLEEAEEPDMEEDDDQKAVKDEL

Turning to SK053, the IC50 was determined as 9.98 µM.
